Measured values as given in paper PMC9108603, “Microbial Metabolite Inspired β‐Peptide Polymers Displaying Potent and Selective Antifungal Activity” (Advanced Science, 2022).
In brackets after ≈: the same amount, converted by molar mass.

Legend:
[1] = system: endothelial cells (HUVEC); experiment: Cytotoxicity, MTT assay; type: cell-based, human; conditions: Homo sapiens, HUVEC, 24 h, 37 °C, 800 to 1.6 μg/mL, 50% cell viability
Procedure: (§1) Cytotoxicity assay. Cytotoxicity tests were performed on NIH 3T3 fibroblast cells, endothelial cells (HUVEC), macrophage (RAW264.7), liver cells (LO2), kidney cells (COS7) and enterocyte (NCM-460) using MTT assay. Cells were cultured in DMEM supplemented with 10% FBS, 5% penicillin, 2 mM L-glutamine and incubated at 37 °C in 5% CO 2. Cells were harvested and seeded onto 96-well plates at a density of 1.0 × 10^4 cells per well and incubated for 24 h. On each plate, wells containing growth medium only and cells in growth medium without any antifungal agent were used as the negative and positive control, […]
(§2) concentrations ranging from 800 to 1.6 μg/mL. Medium in each cell-containing well was replaced with 100 μL of the corresponding polymer solution, and the plates were incubated at 37 °C for 24 h. Then, the solution in each well was switched to 100 µL MTT solution (1 mg/mL) and the plate was incubated in the dark at 37 °C for 4 h. […] Then 85 µL of the supernatant from each well was transferred to the corresponding well in a new plate, followed by absorbance measurement at 570 nm on a plate reader. […] The percentage of cell viability in each test well, relative to the positive control (which defines 100%) w as calculated from [% fibroblast growth = (A polymer – Ablank)/(Acontrol – A blank) × 100]. […]

various mammalian cells = experiment: Cytotoxicity, MTT assay, summary over cell types; type: cell-based; conditions: HUVEC, RAW264.7, LO2, COS7, NCM‐460, 24 h, read-out: IC50 for cells other than fibroblast (range)
Procedure: as §1, §2

A. Baumannii ATCC 747 = experiment: Antibacterial MIC test; type: cell-based; conditions: 1.0 × 10^5 CFU/mL in MH medium
Source text: (§3) aforementioned antifungal assay. Gram-positive bacteria ( S. aureus ATCC 6538, S.

B. subtilis BR151 = experiment: Antibacterial MIC test; type: cell-based; conditions: 1.0 × 10^5 CFU/mL in MH medium
Source text: as §3

E. coli ATCC 25922 = experiment: Antibacterial MIC test; type: cell-based; conditions: 1.0 × 10^5 CFU/mL in MH medium
Source text: as §3

[2] = system: K. pneumoniae ATCC 700603; experiment: Antibacterial MIC test; type: cell-based; conditions: 1.0 × 10^5 CFU/mL in MH medium
Source text: as §3

S. aureus ATCC 6538 = experiment: Antibacterial MIC test; type: cell-based; conditions: 1.0 × 10^5 CFU/mL in MH medium
Source text: as §3

[3] = system: S. epidermidis ATCC 49134; experiment: Antibacterial MIC test; type: cell-based; conditions: 1.0 × 10^5 CFU/mL in MH medium
Source text: as §3

BALB/c mice eyes = type: in vivo, mouse; conditions: 15 mg mL^−1 eye drops every 5 min for 1 h, then every 30 min for 7 h; male BALB/c, n = 3
Procedure: Medicine (Accreditation number of the laboratory: SHDSYY-2021-1729). The experiment
method. […] AmpB was
(2.5% DMSO in final solution).
The organs (kidney, liver, and
14th day for histological analysis and blood biochemistry analysis.
30 min during the next 7 h.
C. albicans biofilm formation on contact lenses. The contact lenses (Biomedic ®, Cooper
Then the discs were transferred to a
and incubated at rt with shaking at 100 rpm. After 6 hours of incubation, the suspension was […]

C. albicans (K1 strain) = experiment: Mitochondrial membrane potential (JC-1); type: cell-based, Candida albicans; conditions: 50 μg/mL PDAP20, 2 h, 3.0 × 10^6 CFU/mL; green = early stage of apoptosis
Procedure: NAC concentration without affecting the normal cell growth. Wells containing cells in RPMI and 40 mM H 2O2 was used as positive controls. Cell suspension of C. albicans (K1 strain) at 6.0 × 10^6 CFU/mL was treated with 20 μM 2,7-dichlorodi-hydrofluorescein diacetate (DCFHDA) for 20 min. Then 50 µL of the cell suspension was added to each well, except the blank control (RMPI containing DCFHDA without cells). The fluorescence intensity of the induced ROS production was measured every 30 min using a plate reader at λ ex = 485 nm and λem = 530 nm. The confocal observation of ROS production was conducted after C. albicans (K1 strain) suspension at 3.0 × 10^6 CFU/mL was incubated with 50 μg/mL CPM-PDAP 20 for 2 h. […]
Detection of mitochondrial membrane potential. Changes in mitochondrial membrane potential in C. albicans after incubation with PDAP 20 were analyzed using JC-1 as previously described. Mitochondrial membrane potential was detected with the fluorescent dye JC-1, which exists as aggregates (red) in normal cells with polarized mitochondria, whereas exists as monomers (green) in apoptotic cells with depolarized mitochondria. […]
DNA fragmentation assay. Apoptosis induced DNA fragments in C. albicans cells were analyzed using the TdT-mediated dUTP Nick-End Labeling (TUNEL) method. […]

With `C[C@@H]1[C@H](O)[C@@H](C)/C=C/C=C/C=C/C=C/C=C/C=C/C=C/[C@H](O[C@@H]2O[C@H](C)[C@@H](O)[C@H](N)[C@@H]2O)C[C@@H]2O[C@](O)(C[C@@H](O)C[C@@H](O)[C@H](O)CC[C@@H](O)C[C@@H](O)CC(=O)O[C@H]1C)C[C@H](O)[C@H]2C(=O)O` [AmpB, amphotericin B] the IC50 [1] was 8.8 µg/mL (≈ 9.52 µM) and the IC50 (various mammalian cells) was 8.8 to 128 µg/mL (≈ 9.52 to 139 µM).
In the case of poly(DL‐diaminopropionic acid) [PDAP20], the “MIC A. baumannii” value (A. Baumannii ATCC 747) was over 200 µg/mL, the “MIC B. subtilis” value (B. subtilis BR151) was 50 µg/mL and the “MIC E. coli” value (E. coli ATCC 25922) was 200 µg/mL. The “MIC K. pneumoniae” value [2] was over 200 µg/mL, the “MIC S. aureus” value (S. aureus ATCC 6538) was over 200 µg/mL and the “MIC S. epidermidis” value [3] was 200 µg/mL. For the same compound, the “Corneal histology (H&E) after topical administration” value (BALB/c mice eyes) was “no obvious toxicity” and the “Mitochondrial membrane potential, JC‐1 stain” value (C. albicans (K1 strain)) was “cytosol green fluorescence”.
